Measured values: ChEMBL document CHEMBL4613303, “New Dihydrothiazole Benzensulfonamides: Looking for Selectivity toward Carbonic Anhydrase Isoforms I, II, IX, and XII” (ACS Med Chem Lett, 2020)

biological target: Carbonic anhydrase 9 (Homo sapiens, UniProt Q16790); assay: Inhibition of recombinant human carbonic anhydrase 9 incubated for 6 hrs prior to testing measured for 10 to 100 secs by phenol red-based stopped-flow CO2 hydration assay

Row | Ki | Structure (SMILES)
1 | 3390 nM | CCn1c(-c2ccc(Br)cc2)cs/c1=N/c1ccc(S(N)(=O)=O)cc1
2 | 4330 nM | CCn1c(-c2ccc(C#N)cc2)cs/c1=N/c1ccc(S(N)(=O)=O)cc1
3 | 214 nM | CCn1c(-c2cccc([N+](=O)[O-])c2)cs/c1=N/c1ccc(S(N)(=O)=O)cc1
4 | 4320 nM | CCn1c(-c2ccc([N+](=O)[O-])cc2)cs/c1=N/c1ccc(S(N)(=O)=O)cc1
5 | 358 nM | CCn1c(-c2ccc(C)cc2)cs/c1=N/c1ccc(S(N)(=O)=O)cc1
6 | 248 nM | CCn1c(-c2ccccc2)cs/c1=N/c1ccc(S(N)(=O)=O)cc1
7 | 109 nM | CCn1c(-c2ccc(Cl)cc2)cs/c1=N/c1ccc(S(N)(=O)=O)cc1
8 | 297 nM | CCn1c(-c2cccs2)cs/c1=N/c1ccc(S(N)(=O)=O)cc1
9 | 144 nM | CCn1c(-c2ccc(F)cc2F)cs/c1=N/c1ccc(S(N)(=O)=O)cc1
10 | 4310 nM | CCn1c(-c2ccc(-c3ccccc3)cc2)cs/c1=N/c1ccc(S(N)(=O)=O)cc1
11 | 3930 nM | CCn1c(-c2ccc(F)cc2)cs/c1=N/c1ccc(S(N)(=O)=O)cc1
12 | 205 nM | CCn1c(-c2ccc(OC)cc2)cs/c1=N/c1ccc(S(N)(=O)=O)cc1
13 | 225 nM | CCn1c(-c2ccc(Cl)cc2Cl)cs/c1=N/c1ccc(S(N)(=O)=O)cc1
